Activity calls are given as the source filed them. No rule for the calls is given here.
What follows are compounds tested on HeLa, chromatin condensation phenotype imaging (assay: condensed chromatin phenotype in HeLa cells – imaging, IC50, dose response (AID 1117350)).

Compound | IC50
CC[C@]1(O)C[C@H]2CN(CCc3c([nH]c4ccccc34)[C@@](C(=O)OC)(c3cc4c(cc3OC)N(C=O)[C@H]3[C@@](O)(C(=O)OC)[C@H](OC(C)=O)[C@]5(CC)C=CCN6CC[C@]43[C@@H]65)C2)C1 | 0.0061 µM
CCN(CC)CCNC(=O)c1c(C)[nH]c(/C=C2\C(=O)Nc3ccc(F)cc32)c1C | 3.81 µM
Fc1ccc(C(OCCN2CCN(CCCc3ccccc3)CC2)c2ccc(F)cc2)cc1 | > 10 µM (inactive)
CCC(COC(=O)c1cc(OC)c(OC)c(OC)c1)(c1ccccc1)N(C)C (stereo not drawn) | > 10 µM (inactive)
CC[n+]1c(-c2ccccc2)c2cc(N)ccc2c2ccc(N)cc21 | > 10 µM (inactive)
Nc1nc(=O)n([C@@H]2O[C@H](CO)[C@@H](O)[C@@H]2F)cc1I | > 10 µM (inactive)
Cc1cc(N)c2ccccc2[n+]1CCCCCCCCCC[n+]1c(C)cc(N)c2ccccc21 | > 10 µM (inactive)
Cc1ccc(Nc2nccc(N(C)c3ccc4c(C)n(C)nc4c3)n2)cc1S(N)(=O)=O | > 10 µM (inactive)
CCOc1ccc2nc3cc(N)ccc3c(N)c2c1 | > 10 µM (inactive)
Cc1ccc2c(c1)c1c3n2CCNC3CCC1 (stereo not drawn) | > 10 µM (inactive)
Oc1ccc([C@H]2CNCc3c2ccc(O)c3O)cc1O | > 10 µM (inactive)
CN(C)c1ccc2nc3ccc(=[N+](C)C)cc-3sc2c1 | > 10 µM (inactive)
CC(C)C[C@H](NC(=O)[C@H](CCc1ccccc1)NC(=O)CN1CCOCC1)C(=O)N[C@@H](Cc1ccccc1)C(=O)N[C@@H](CC(C)C)C(=O)[C@@]1(C)CO1 | > 10 µM (inactive)
CCCCC(CC)CN=C(N)NC(N)=NCCCCCCN=C(N)NC(N)=NCC(CC)CCCC (stereo not drawn) | > 10 µM (inactive)
CN(Cc1cnc2nc(N)nc(N)c2n1)c1ccc(C(=O)N[C@@H](CCC(=O)O)C(=O)O)cc1 | > 10 µM (inactive)
O=C(Nc1ccc(Br)cc1)c1cc(Br)cc(Br)c1O | > 10 µM (inactive)
CC(C)=CCC/C(C)=C/CC/C(C)=C/C(=O)OCC(=O)[C@@]1(O)CC[C@H]2[C@@H]3CCC4=CC(=O)C=C[C@]4(C)[C@H]3[C@@H](O)C[C@@]21C | > 10 µM (inactive)
CC[C@@]1(O)C(=O)OCc2c1cc1n(c2=O)Cc2cc3c(CN(C)C)c(O)ccc3nc2-1 | > 10 µM (inactive)
Oc1c(Cl)cc(Cl)c2cccnc12 | > 10 µM (inactive)
COC(=O)Nc1nc2ccc(S(=O)c3ccccc3)cc2[nH]1 (stereo not drawn) | 0.241 µM
COc1ccc(Cc2nccc3cc(OC)c(OC)cc23)cc1OC | > 10 µM (inactive)

Compound | IC50
Cc1cc(CC(C)CC(C)(C)C)n(O)c(=O)c1 (stereo not drawn) | > 10 µM (inactive)
OC[C@H]1O[C@@H](n2cnc3c(=S)nc[nH]c32)[C@H](O)[C@@H]1O | > 10 µM (inactive)
O=C(c1cc(O)c(O)c(O)c1)c1ccc(O)c(O)c1O | > 10 µM (inactive)
O=C(O)CCCc1ccc(N(CCCl)CCCl)cc1 | > 10 µM (inactive)
O=c1[nH]cc(F)c(=O)[nH]1 | > 10 µM (inactive)
COc1cc(-c2ccc(=O)[nH]n2)ccc1OC(F)F | > 10 µM (inactive)
CCCCCCCCCCOCC(O)CN (stereo not drawn) | > 10 µM (inactive)
CCCOc1ccc2nc(NC(=O)OC)[nH]c2c1 | 0.0775 µM
CC(=O)N(O)CCCCCNC(=O)CCC(=O)N(O)CCCCCNC(=O)CCC(=O)N(O)CCCCCN | > 10 µM (inactive)
O=C(O)CN(CCN(CC(=O)O)CC(=O)O)CCN(CC(=O)O)CC(=O)O | > 10 µM (inactive)
CCCCC1C(=O)N(c2ccccc2)N(c2ccc(O)cc2)C1=O (stereo not drawn) | > 10 µM (inactive)
Cc1nc2ccccc2n1Cc1ccc(Cl)cc1 | > 10 µM (inactive)
CCCN(CCC)C(=O)C(CCC(=O)OCCCN1CCN(CCOC(=O)Cc2c(C)n(C(=O)c3ccc(Cl)cc3)c3ccc(OC)cc23)CC1)NC(=O)c1ccccc1 (stereo not drawn) | > 10 µM (inactive)
CC(C)(C)C(=O)OCOP(=O)(COCCn1cnc2c(N)ncnc21)OCOC(=O)C(C)(C)C | > 10 µM (inactive)
O=C1c2c(O)cccc2Cc2cccc(O)c21 | > 10 µM (inactive)
Cc1ccc([N+](=O)[O-])[c]2c1[O][Hg]2 | 1.22 µM
Cc1ccccc1C(OCCN(C)C)c1ccccc1 (stereo not drawn) | > 10 µM (inactive)
CC(=O)Oc1ccc(C2(c3ccc(OC(C)=O)cc3)Oc3ccccc3NC2=O)cc1 | > 10 µM (inactive)
COC(=O)c1nc(Cl)c(Cl)nc1N | 0.868 µM
CCCCCCCCCCCCCCCCNc1ccc(C(=O)O)cc1 | > 10 µM (inactive)
O=c1c(-c2ccccc2)c1-c1ccccc1 | > 10 µM (inactive)

Compound | IC50
Clc1ccc(Nc2nnc(Cc3ccncc3)c3ccccc23)cc1 | > 10 µM (inactive)
C1CN(P2(N3CC3)=NP(N3CC3)(N3CC3)=NP(N3CC3)(N3CC3)=N2)CCO1 (stereo not drawn) | > 10 µM (inactive)
NC(=NCCCCCCN=C(N)/N=C(\N)Nc1ccc(Cl)cc1)/N=C(\N)Nc1ccc(Cl)cc1 | > 10 µM (inactive)
CC[C@H](C)C(=O)O[C@H]1C[C@@H](C)C=C2C=C[C@H](C)[C@H](CC[C@@H]3C[C@@H](O)CC(=O)O3)[C@H]21 | > 10 µM (inactive)
COc1cc(NCc2ccc3nc(N)nc(N)c3c2C)cc(OC)c1OC | > 10 µM (inactive)
CN(C)/N=N/c1nc[nH]c1C(N)=O | > 10 µM (inactive)
Oc1c(Cl)cc(Cl)cc1Sc1cc(Cl)cc(Cl)c1O | > 10 µM (inactive)
CCCCCCCCCCCC[N+](C)(C)Cc1ccccc1 | > 10 µM (inactive)
COC(=O)[C@H]1[C@H]2C[C@@H]3c4[nH]c5cc(OC)ccc5c4CCN3C[C@H]2C[C@@H](OC(=O)/C=C/c2ccc(O)c(OC)c2)[C@@H]1OC | > 10 µM (inactive)
CCCCCCCCCCCCCCCC[n+]1ccccc1 | 0.515 µM
S=c1nc[nH]c2nc[nH]c12 | > 10 µM (inactive)
CCN(CC)CCCC(C)Nc1c2ccc(Cl)cc2nc2ccc(OC)cc12 (stereo not drawn) | 8.58 µM (inactive)
Cc1cc(=O)c2c(O)c3c(O)cc(=O)c4c3c3c(cc(O)c1c23)C(C)(C)C=4O | > 10 µM (inactive)
CCCCCCCCCCCCCCCCCCNC(=O)OC1CCN(C(=O)OC[C@H](COC(=O)N(Cc2cccc[n+]2CC)C(=O)c2ccccc2OC)OC)CC1 | > 10 µM (inactive)
CC(CC1c2ccccc2CCc2ccccc21)CN(C)C (stereo not drawn) | > 10 µM (inactive)
O=C(CCBr)N1CCN(C(=O)CCBr)CC1 | > 10 µM (inactive)
CCCSc1ccc2nc(NC(=O)OC)[nH]c2c1 | 0.0615 µM
CCCCOC(=O)c1ccc(N)cc1 | > 10 µM (inactive)
COCCOC(=O)C1=C(C)NC(C)=C(C(=O)OC/C=C/c2ccccc2)C1c1cccc([N+](=O)[O-])c1 (stereo not drawn) | > 10 µM (inactive)
CC[C@@]1(O)C(=O)OCc2c1cc1n(c2=O)Cc2c-1nc1ccccc1c2/C=N/OC(C)(C)C | > 10 µM (inactive)
COC(=O)Nc1nc2ccc(C(=O)c3cccs3)cc2[nH]1 | 0.0134 µM

Compound | IC50
CSc1ccc2c(c1)C(N1CCN(C)CC1)Cc1ccccc1S2 (stereo not drawn) | > 10 µM (inactive)
NCCNc1ccc(NCCN)c2c1C(=O)c1ccncc1C2=O | > 10 µM (inactive)
Cc1ccccc1C(=O)Nc1ccc(C(=O)N2CCCC(N(C)C)c3ccccc32)cc1 (stereo not drawn) | 3.41 µM
COc1cccc2c1C(=O)c1c(O)c3c(c(O)c1C2=O)C[C@@](O)(C(=O)CO)CC3OC1CC(N2CCOC(OC)C2)C(O)C(C)O1 (stereo partly drawn) | 0.0118 µM
N[C@@H](Cc1ccc(N(CCCl)CCCl)cc1)C(=O)O | > 10 µM (inactive)
Cc1nc2ccc(CN(C)c3ccc(C(=O)N[C@@H](CCC(=O)O)C(=O)O)s3)cc2c(=O)[nH]1 | > 10 µM (inactive)
Clc1ccccc1C(c1ccccc1)(c1ccccc1)n1ccnc1 | > 10 µM (inactive)
O=[N+]([O-])c1ccc(O)c2ncccc12 | > 10 µM (inactive)
CCCCCCCCCCCCCCCC[N+](C)(C)Cc1ccccc1 | > 10 µM (inactive)
COC(=O)Nc1nc2ccc(C(=O)C3CC3)cc2[nH]1 | 0.402 µM
COc1ccc(-c2nc3ccc(C4=NNC(=O)CC4C)cc3[nH]2)cc1 (stereo not drawn) | > 10 µM (inactive)
COC(=O)Nc1nc2ccc(Sc3ccccc3)cc2[nH]1 | 0.228 µM
O=c1[nH]c(=O)n([C@H]2C[C@H](O)[C@@H](CO)O2)cc1F | > 10 µM (inactive)
Nc1nc(=S)c2[nH]cnc2[nH]1 | > 10 µM (inactive)
Cc1cc2c(C(C)C)c(O)c(O)c(C=O)c2c(O)c1-c1c(C)cc2c(C(C)C)c(O)c(O)c(C=O)c2c1O | > 10 µM (inactive)
CCCCCCCCCCCCNCCNCCNCC(=O)O | > 10 µM (inactive)
COc1cc(NC(C)CCCN)c2ncccc2c1 (stereo not drawn) | > 10 µM (inactive)
C[C@@]12C(=O)OC(=O)[C@]1(C)C1CCC2O1 | 8.5 µM (inactive)
C=CC(=O)Nc1cc2c(Nc3ccc(F)c(Cl)c3)ncnc2cc1OCCCN1CCOCC1 | 4.29 µM
CCN(CC)CCOc1ccccc1C(=O)CCc1ccccc1 | > 10 µM (inactive)

— PubChem BioAssay AID1117350 (Cheminformatics & Chemogenomics Research Group (CCRG), …, 2015)
